Laboratory results taken from the supplement of paper PMC10307832.

Columns and labels:
Assay in all cases: relative viability (nuclei count vs DMSO), 5 days (fraction); higher = more cells survive
201T = tested on: 201T
Method in brief: (§1)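 Values are medians from duplicate plates. Each reflects relative viability, defined as the nuclei count of treated wells over that of vehicle wells. Lung cancer cell lines in 1536-well plates were pin-tool dosed one day after seeding with one drug alone or with a fixed anchor-drug dose plus five library-drug doses (not always all listed) in √10 steps, then fixed, stained and imaged at 4× after 5 days.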

BEN = tested on: BEN
Method in brief: as §1

COR-L 105 = tested on: COR-L 105
Method in brief: as §1

EKVX = tested on: EKVX
Method in brief: as §1

EPLC-272H = tested on: EPLC-272H
Method in brief: as §1

H3255 = tested on: H3255
Method in brief: as §1

HCC-44 = tested on: HCC-44
Method in brief: as §1

HCC-827 = tested on: HCC-827
Method in brief: as §1

HOP-62 = tested on: HOP-62
Method in brief: as §1

LCLC-97TM1 = tested on: LCLC-97TM1
Method in brief: as §1

LOU-NH91 = tested on: LOU-NH91
Method in brief: as §1

LU99A = tested on: LU99A
Method in brief: as §1

NCI-H1437 = tested on: NCI-H1437
Method in brief: as §1

NCI-H1666 = tested on: NCI-H1666
Method in brief: as §1

NCI-H1975 = tested on: NCI-H1975
Method in brief: as §1

NCI-H2085 = tested on: NCI-H2085
Method in brief: as §1

NCI-H2087 = tested on: NCI-H2087
Method in brief: as §1

NCI-H647 = tested on: NCI-H647
Method in brief: as §1

PC-3 [JPC-3] = tested on: PC-3 [JPC-3]
Method in brief: as §1

SW 1573 = tested on: SW 1573
Method in brief: as §1

C=C1C(=O)O[C@@H](CCCCCCCC)[C@@H]1C(=O)O [C-75] + CC(C)C[C@H](NC(=O)[C@H](Cc1ccccc1)NC(=O)c1cnccn1)B(O)O [Bortezomib] (partner 0.002 µM)
relative viability (201T; first compound 0.08 µM): 1.07 | relative viability (201T; first compound 0.253 µM): 1.24 | relative viability (201T; first compound 0.8 µM): 1.08 | relative viability (201T; first compound 2.53 µM): 1.15 | relative viability (201T; first compound 8 µM): 1.08 | relative viability (BEN; first compound 0.08 µM): 0.847 | relative viability (BEN; first compound 0.253 µM): 0.868 | relative viability (BEN; first compound 0.8 µM): 0.666 | relative viability (BEN; first compound 2.53 µM): 0.639 | relative viability (BEN; first compound 8 µM): 0.653 | relative viability (COR-L 105; first compound 0.08 µM): 0.838 | relative viability (COR-L 105; first compound 0.253 µM): 0.627 | relative viability (COR-L 105; first compound 0.8 µM): 0.779 | relative viability (COR-L 105; first compound 2.53 µM): 0.809 | relative viability (COR-L 105; first compound 8 µM): 0.728 | relative viability (EKVX; first compound 0.08 µM): 0.996 | relative viability (EKVX; first compound 0.253 µM): 1.09 | relative viability (EKVX; first compound 0.8 µM): 1.17 | relative viability (EKVX; first compound 2.53 µM): 0.947 | relative viability (EKVX; first compound 8 µM): 1.01 | relative viability (EPLC-272H; first compound 0.08 µM): 1.03 | relative viability (EPLC-272H; first compound 0.253 µM): 0.845 | relative viability (EPLC-272H; first compound 0.8 µM): 0.792 | relative viability (EPLC-272H; first compound 2.53 µM): 0.833 | relative viability (EPLC-272H; first compound 8 µM): 0.913 | relative viability (H3255; first compound 0.08 µM): 0.841 | relative viability (H3255; first compound 0.253 µM): 0.811 | relative viability (H3255; first compound 0.8 µM): 0.715 | relative viability (H3255; first compound 2.53 µM): 0.799 | relative viability (H3255; first compound 8 µM): 0.8 | relative viability (HCC-44; first compound 0.08 µM): 0.885 | relative viability (HCC-44; first compound 0.253 µM): 0.863 | relative viability (HCC-44; first compound 0.8 µM): 0.857 | relative viability (HCC-44; first compound 2.53 µM): 0.714 | relative viability (HCC-44; first compound 8 µM): 0.89 | relative viability (HCC-827; first compound 0.08 µM): 1.09 | relative viability (HCC-827; first compound 0.253 µM): 0.995 | relative viability (HCC-827; first compound 0.8 µM): 0.972 | relative viability (HCC-827; first compound 2.53 µM): 1.01 | relative viability (HCC-827; first compound 8 µM): 1.08 | relative viability (HOP-62; first compound 0.08 µM): 0.651 | relative viability (HOP-62; first compound 0.253 µM): 0.676 | relative viability (HOP-62; first compound 0.8 µM): 0.89 | relative viability (HOP-62; first compound 2.53 µM): 0.778 | relative viability (HOP-62; first compound 8 µM): 0.916 | relative viability (LCLC-97TM1; first compound 0.08 µM): 0.636 | relative viability (LCLC-97TM1; first compound 0.253 µM): 0.595 | relative viability (LCLC-97TM1; first compound 0.8 µM): 0.222 | relative viability (LCLC-97TM1; first compound 2.53 µM): 0.477 | relative viability (LCLC-97TM1; first compound 8 µM): 0.218 | relative viability (LOU-NH91; first compound 0.08 µM): 0.47 | relative viability (LOU-NH91; first compound 0.253 µM): 0.495 | relative viability (LOU-NH91; first compound 0.8 µM): 0.454 | relative viability (LOU-NH91; first compound 2.53 µM): 0.346 | relative viability (LOU-NH91; first compound 8 µM): 0.394 | relative viability (LU99A; first compound 0.08 µM): 1.1 | relative viability (LU99A; first compound 0.253 µM): 1.03 | relative viability (LU99A; first compound 0.8 µM): 1.08 | relative viability (LU99A; first compound 2.53 µM): 0.933 | relative viability (LU99A; first compound 8 µM): 0.885 | relative viability (NCI-H1437; first compound 0.08 µM): 0.572 | relative viability (NCI-H1437; first compound 0.253 µM): 0.546 | relative viability (NCI-H1437; first compound 0.8 µM): 0.483 | relative viability (NCI-H1437; first compound 2.53 µM): 0.546 | relative viability (NCI-H1437; first compound 8 µM): 0.455 | relative viability (NCI-H1666; first compound 0.08 µM): 0.888 | relative viability (NCI-H1666; first compound 0.253 µM): 0.948 | relative viability (NCI-H1666; first compound 0.8 µM): 0.7 | relative viability (NCI-H1666; first compound 2.53 µM): 0.7 | relative viability (NCI-H1666; first compound 8 µM): 0.641 | relative viability (NCI-H1975; first compound 0.08 µM): 0.332 | relative viability (NCI-H1975; first compound 0.253 µM): 0.395 | relative viability (NCI-H1975; first compound 0.8 µM): 0.4 | relative viability (NCI-H1975; first compound 2.53 µM): 0.283 | relative viability (NCI-H1975; first compound 8 µM): 0.361 | relative viability (NCI-H2085; first compound 0.08 µM): 1.13 | relative viability (NCI-H2085; first compound 0.253 µM): 0.882 | relative viability (NCI-H2085; first compound 0.8 µM): 0.999 | relative viability (NCI-H2085; first compound 2.53 µM): 0.76 | relative viability (NCI-H2085; first compound 8 µM): 0.897 | relative viability (NCI-H2087; first compound 0.08 µM): 0.724 | relative viability (NCI-H2087; first compound 0.253 µM): 0.863 | relative viability (NCI-H2087; first compound 0.8 µM): 0.743 | relative viability (NCI-H2087; first compound 2.53 µM): 0.396 | relative viability (NCI-H2087; first compound 8 µM): 0.581 | relative viability (NCI-H647; first compound 0.08 µM): 0.836 | relative viability (NCI-H647; first compound 0.253 µM): 1.1 | relative viability (NCI-H647; first compound 2.53 µM): 0.869 | relative viability (NCI-H647; first compound 8 µM): 0.809 | relative viability (PC-3 [JPC-3]; first compound 0.08 µM): 0.826 | relative viability (PC-3 [JPC-3]; first compound 0.253 µM): 0.839 | relative viability (PC-3 [JPC-3]; first compound 0.8 µM): 0.826 | relative viability (PC-3 [JPC-3]; first compound 2.53 µM): 0.581 | relative viability (PC-3 [JPC-3]; first compound 8 µM): 0.836 | relative viability (SW 1573; first compound 0.08 µM): 1.05 | relative viability (SW 1573; first compound 0.253 µM): 0.949 | relative viability (SW 1573; first compound 0.8 µM): 1.03 | relative viability (SW 1573; first compound 2.53 µM): 1.07 | relative viability (SW 1573; first compound 8 µM): 0.912
